Measurements reported in patent US7329652B2, “Diaminotriazole compounds useful as protein kinase inhibitors” (Vertex Pharamaceuticals Incorporated, priority 2004, dated 2008).

Experiments:
JAK3 = target: T1, JAK3 (Homo sapiens, UniProt P52333); assay: JAK3 inhibition assay (radiometric 33P filter assay); type: biochemical; details: 1 μM poly(Glu)4Tyr, 5 μM ATP, 1 nM JAK3, 25° C.; read-out: JAK3 inhibition data (Ki)
T1 sequence (P52333 1-1124): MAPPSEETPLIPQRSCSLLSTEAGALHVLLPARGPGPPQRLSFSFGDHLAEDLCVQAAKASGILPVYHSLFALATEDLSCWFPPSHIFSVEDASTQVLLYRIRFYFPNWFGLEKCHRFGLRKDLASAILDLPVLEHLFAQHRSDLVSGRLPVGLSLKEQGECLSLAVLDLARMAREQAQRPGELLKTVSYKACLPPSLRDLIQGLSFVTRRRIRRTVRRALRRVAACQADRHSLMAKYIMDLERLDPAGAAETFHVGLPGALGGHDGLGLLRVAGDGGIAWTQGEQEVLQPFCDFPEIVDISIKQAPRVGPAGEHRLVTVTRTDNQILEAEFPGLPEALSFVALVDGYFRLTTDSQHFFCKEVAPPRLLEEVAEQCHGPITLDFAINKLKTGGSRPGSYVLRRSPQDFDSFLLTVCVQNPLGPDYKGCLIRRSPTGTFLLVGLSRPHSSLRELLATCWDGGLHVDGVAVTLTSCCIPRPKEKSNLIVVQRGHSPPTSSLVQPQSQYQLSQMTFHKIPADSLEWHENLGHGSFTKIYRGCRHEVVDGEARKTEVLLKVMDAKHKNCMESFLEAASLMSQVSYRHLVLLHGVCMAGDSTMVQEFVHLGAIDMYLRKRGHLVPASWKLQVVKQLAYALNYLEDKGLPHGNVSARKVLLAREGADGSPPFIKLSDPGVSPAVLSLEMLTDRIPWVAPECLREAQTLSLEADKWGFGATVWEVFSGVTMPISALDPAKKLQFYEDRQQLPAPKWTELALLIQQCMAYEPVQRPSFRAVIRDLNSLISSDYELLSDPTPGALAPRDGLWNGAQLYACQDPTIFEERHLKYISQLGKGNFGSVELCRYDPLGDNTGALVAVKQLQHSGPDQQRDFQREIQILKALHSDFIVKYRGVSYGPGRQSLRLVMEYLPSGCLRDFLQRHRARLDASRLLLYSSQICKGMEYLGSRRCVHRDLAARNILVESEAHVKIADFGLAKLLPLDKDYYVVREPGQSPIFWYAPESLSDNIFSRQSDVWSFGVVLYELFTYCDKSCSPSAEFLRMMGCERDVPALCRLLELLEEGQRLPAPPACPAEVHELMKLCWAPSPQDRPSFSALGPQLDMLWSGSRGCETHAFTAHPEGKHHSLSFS
Procedure: (§1) Compounds were screened for their ability to inhibit JAK using the assay shown below. Reactions were carried out in a kinase buffer containing 100 mM HEPES (pH 7.4), 1 mM DTT, 10 mM MgCl2, 25 mM NaCl, and 0.01% BSA.
(§2) Substrate concentrations in the assay were 5 μM ATP (200 uCi/μmole ATP) and 1 μM poly(Glu)4Tyr. Reactions were carried out at 25° C. and 1 nM JAK3.
(§3) To each well of a 96 well polycarbonate plate was added 1.5 μl of a candidate JAK3 inhibitor along with 50 μl of kinase buffer containing 2 μM poly(Glu)4Tyr and 10 μM ATP. This was then mixed and 50 μl of kinase buffer containing 2 nM JAK3 enzyme was added to start the reaction. After 20 minutes at room temperature (25° C.), the reaction was stopped with 50 μl of 20% trichloroacetic acid (TCA) that also contained 0.4 mM ATP. The entire contents of each well were then transferred to a 96 well glass fiber filter plate using a TomTek Cell Harvester. After washing, 60 μl of scintillation fluid was added and ^33P incorporation detected on a Perkin Elmer TopCount.

JAK-2 enzyme = JAK-2 enzyme (Homo sapiens, UniProt O60674); assay: JAK2 inhibition assay (radiometric 33P filter assay); type: biochemical; details: 15 μM poly(Glu)4Tyr, 12 μM ATP; read-out: JAK2 inhibition data (Ki)
Sequence of JAK-2 enzyme (O60674 whole entry, species assumed): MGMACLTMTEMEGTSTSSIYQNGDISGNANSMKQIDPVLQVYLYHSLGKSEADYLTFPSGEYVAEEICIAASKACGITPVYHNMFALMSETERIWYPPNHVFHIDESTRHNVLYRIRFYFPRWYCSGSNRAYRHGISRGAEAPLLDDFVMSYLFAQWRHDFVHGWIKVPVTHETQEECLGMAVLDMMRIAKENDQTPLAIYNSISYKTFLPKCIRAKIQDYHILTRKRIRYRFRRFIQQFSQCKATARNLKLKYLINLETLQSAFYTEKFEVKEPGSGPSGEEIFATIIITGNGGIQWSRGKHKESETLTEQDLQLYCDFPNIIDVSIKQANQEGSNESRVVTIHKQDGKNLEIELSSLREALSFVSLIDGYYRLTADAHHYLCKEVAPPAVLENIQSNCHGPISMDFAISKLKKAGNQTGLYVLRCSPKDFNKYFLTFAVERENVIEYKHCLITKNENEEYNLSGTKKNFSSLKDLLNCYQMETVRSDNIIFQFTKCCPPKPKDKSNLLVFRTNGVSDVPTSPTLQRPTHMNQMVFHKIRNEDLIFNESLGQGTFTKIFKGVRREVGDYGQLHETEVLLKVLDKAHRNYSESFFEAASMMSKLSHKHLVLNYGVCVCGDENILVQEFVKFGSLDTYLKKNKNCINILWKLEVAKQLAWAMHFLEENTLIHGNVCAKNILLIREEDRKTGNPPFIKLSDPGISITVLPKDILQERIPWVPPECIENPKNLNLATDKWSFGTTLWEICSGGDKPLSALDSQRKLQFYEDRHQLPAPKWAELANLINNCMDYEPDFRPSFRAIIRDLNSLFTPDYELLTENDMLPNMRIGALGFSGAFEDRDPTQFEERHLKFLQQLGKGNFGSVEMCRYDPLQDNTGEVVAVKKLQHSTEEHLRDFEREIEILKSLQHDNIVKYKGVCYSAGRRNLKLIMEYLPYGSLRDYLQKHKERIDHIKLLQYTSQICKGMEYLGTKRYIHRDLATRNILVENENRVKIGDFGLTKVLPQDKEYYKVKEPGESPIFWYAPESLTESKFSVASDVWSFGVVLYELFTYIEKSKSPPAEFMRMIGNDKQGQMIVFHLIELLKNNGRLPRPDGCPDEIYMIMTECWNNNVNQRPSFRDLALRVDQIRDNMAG
Procedure: as §1, §2, §3
The assays were as described above in Example 25 except that JAK-2 enzyme was used, the final poly(Glu)4Tyr concentration was 15 μM, and final ATP concentration was 12 μM.

| Ki (JAK3) | Ki (JAK-2 enzyme) | Structure (SMILES) |
| --- | --- | --- |
| < 50 nM | < 50 nM | COC(=O)N1CCN(c2ccc(Nc3nc(N)n(-c4cc(N5CCCN(C(C)=O)CC5)ncn4)n3)cc2)CC1 [Compound 45] |
| < 50 nM | < 50 nM | CCOC(=O)N1CCN(c2ccc(Nc3nc(N)n(-c4cc(N5CCCN(C(C)=O)CC5)ncn4)n3)cc2)CC1 [Compound 46] |
| < 50 nM | < 50 nM | CCCOC(=O)N1CCN(c2ccc(Nc3nc(N)n(-c4cc(N5CCCN(C(C)=O)CC5)ncn4)n3)cc2)CC1 [Compound 47] |
| < 50 nM | < 50 nM | CC(=O)N1CCCN(c2cc(-n3nc(Nc4ccc(N5CCN(C(=O)OC(C)C)CC5)cc4)nc3N)ncn2)CC1 [Compound 48] |
| < 50 nM | < 50 nM | CC(=O)N1CCCN(c2cc(-n3nc(Nc4ccc(N5CCN(C(=O)OCC(C)(C)C)CC5)cc4)nc3N)ncn2)CC1 [Compound 49] |
| < 50 nM | < 50 nM | CC(=O)N1CCCN(c2cc(-n3nc(Nc4ccc(N5CCN(C(=O)OCC(C)C)CC5)cc4)nc3N)ncn2)CC1 [Compound 50] |
| < 50 nM | < 50 nM | CC(=O)N1CCCN(c2cc(-n3nc(Nc4ccc(N5CCN(C(=O)Oc6ccc(C)cc6)CC5)cc4)nc3N)ncn2)CC1 [Compound 51] |
| < 50 nM | < 50 nM | CC(=O)N1[C@H](C)CN(c2cc(-n3nc(Nc4ccc(N5CCN(C(=O)OC(C)(C)C)CC5)cc4)nc3N)ncn2)C[C@@H]1C [Compound 52] |
| < 50 nM | < 50 nM | COC(=O)N1CCN(c2ccc(Nc3nc(N)n(-c4cc(N5C[C@@H](C)N(C(C)=O)[C@@H](C)C5)ncn4)n3)cc2)CC1 [Compound 53] |
| < 50 nM | < 50 nM | CCOC(=O)N1CCN(c2ccc(Nc3nc(N)n(-c4cc(N5C[C@@H](C)N(C(C)=O)[C@@H](C)C5)ncn4)n3)cc2)CC1 [Compound 54] |
| < 50 nM | < 50 nM | CCCOC(=O)N1CCN(c2ccc(Nc3nc(N)n(-c4cc(N5C[C@@H](C)N(C(C)=O)[C@@H](C)C5)ncn4)n3)cc2)CC1 [Compound 55] |
| < 50 nM | < 50 nM | CC(=O)N1[C@H](C)CN(c2cc(-n3nc(Nc4ccc(N5CCN(C(=O)OC(C)C)CC5)cc4)nc3N)ncn2)C[C@@H]1C [Compound 56] |
| < 50 nM | < 50 nM | CC(=O)N1[C@H](C)CN(c2cc(-n3nc(Nc4ccc(N5CCN(C(=O)OCC(C)(C)C)CC5)cc4)nc3N)ncn2)C[C@@H]1C [Compound 57] |
| < 50 nM | < 50 nM | CC(=O)N1[C@H](C)CN(c2cc(-n3nc(Nc4ccc(N5CCN(C(=O)OCC(C)C)CC5)cc4)nc3N)ncn2)C[C@@H]1C [Compound 58] |
| < 50 nM | < 50 nM | CC(=O)N1[C@H](C)CN(c2cc(-n3nc(Nc4ccc(N5CCNCC5)cc4)nc3N)ncn2)C[C@@H]1C [Compound 59] |
| < 50 nM | < 50 nM | CCNC(=O)N1CCN(c2ccc(Nc3nc(N)n(-c4cc(N5C[C@@H](C)N(C(C)=O)[C@@H](C)C5)ncn4)n3)cc2)CC1 [Compound 60] |
| < 50 nM | < 50 nM | CCCNC(=O)N1CCN(c2ccc(Nc3nc(N)n(-c4cc(N5C[C@@H](C)N(C(C)=O)[C@@H](C)C5)ncn4)n3)cc2)CC1 [Compound 61] |
| < 50 nM | < 50 nM | CC(=O)N1[C@H](C)CN(c2cc(-n3nc(Nc4ccc(N5CCN(C(=O)NC(C)C)CC5)cc4)nc3N)ncn2)C[C@@H]1C [Compound 62] |
| < 50 nM | < 50 nM | CC(=O)N1[C@H](C)CN(c2cc(-n3nc(Nc4ccc(N5CCN(C(=O)NC(C)(C)C)CC5)cc4)nc3N)ncn2)C[C@@H]1C [Compound 63] |
| < 50 nM | < 50 nM | CC(=O)N1[C@H](C)CN(c2cc(-n3nc(Nc4ccc(N5CCN(C(=O)NC6CCCCC6)CC5)cc4)nc3N)ncn2)C[C@@H]1C [Compound 64] |

| Ki (JAK3) | Ki (JAK-2 enzyme) | Structure (SMILES) |
| --- | --- | --- |
| < 50 nM | < 50 nM | CCOC(=O)CCNC(=O)N1CCN(c2ccc(Nc3nc(N)n(-c4cc(N5C[C@@H](C)N(C(C)=O)[C@@H](C)C5)ncn4)n3)cc2)CC1 [Compound 65] |
| < 50 nM | < 50 nM | CC(=O)N1[C@H](C)CN(c2cc(-n3nc(Nc4ccc(N5CCN(C(=O)Nc6c(F)cccc6F)CC5)cc4)nc3N)ncn2)C[C@@H]1C [Compound 66] |
| < 50 nM | < 50 nM | CCNC(=O)Nc1ccc(Nc2nc(N)n(-c3cc(N4C[C@@H](C)N(C(C)=O)[C@@H](C)C4)ncn3)n2)cc1 [Compound 67] |
| < 50 nM | < 50 nM | CCCNC(=O)Nc1ccc(Nc2nc(N)n(-c3cc(N4C[C@@H](C)N(C(C)=O)[C@@H](C)C4)ncn3)n2)cc1 [Compound 68] |
| < 50 nM | < 50 nM | CC(=O)N1[C@H](C)CN(c2cc(-n3nc(Nc4ccc(NC(=O)NC(C)C)cc4)nc3N)ncn2)C[C@@H]1C [Compound 69] |
| < 50 nM | < 50 nM | CC(=O)N1[C@H](C)CN(c2cc(-n3nc(Nc4ccc(NC(=O)NC(C)(C)C)cc4)nc3N)ncn2)C[C@@H]1C [Compound 70] |
| < 50 nM | < 50 nM | CC(=O)N1[C@H](C)CN(c2cc(-n3nc(Nc4ccc(NC(=O)NC5CCCCC5)cc4)nc3N)ncn2)C[C@@H]1C [Compound 71] |
| < 50 nM | < 50 nM | CCOC(=O)CCNC(=O)Nc1ccc(Nc2nc(N)n(-c3cc(N4C[C@@H](C)N(C(C)=O)[C@@H](C)C4)ncn3)n2)cc1 [Compound 72] |
| < 50 nM | < 50 nM | CC(=O)N1[C@H](C)CN(c2cc(-n3nc(Nc4ccc(NC(=O)Nc5c(F)cccc5F)cc4)nc3N)ncn2)C[C@@H]1C [Compound 73] |
| < 50 nM | < 50 nM | CC(=O)N1[C@H](C)CN(c2cc(-n3nc(Nc4ccc(NC(=O)Nc5ccc(C(F)(F)F)cc5)cc4)nc3N)ncn2)C[C@@H]1C [Compound 74] |
| < 50 nM | < 50 nM | COC(=O)Nc1ccc(Nc2nc(N)n(-c3cc(N4C[C@@H](C)N(C(C)=O)[C@@H](C)C4)ncn3)n2)cc1 [Compound 75] |
| < 50 nM | < 50 nM | CCOC(=O)Nc1ccc(Nc2nc(N)n(-c3cc(N4C[C@@H](C)N(C(C)=O)[C@@H](C)C4)ncn3)n2)cc1 [Compound 76] |
| < 50 nM | < 50 nM | CCCOC(=O)Nc1ccc(Nc2nc(N)n(-c3cc(N4C[C@@H](C)N(C(C)=O)[C@@H](C)C4)ncn3)n2)cc1 [Compound 77] |
| < 50 nM | < 50 nM | CC(=O)N1[C@H](C)CN(c2cc(-n3nc(Nc4ccc(NC(=O)OC(C)C)cc4)nc3N)ncn2)C[C@@H]1C [Compound 78] |
| < 50 nM | < 50 nM | CC(=O)N1[C@H](C)CN(c2cc(-n3nc(Nc4ccc(NC(=O)OCC(C)C)cc4)nc3N)ncn2)C[C@@H]1C [Compound 79] |
| < 50 nM | < 50 nM | CC(=O)N1[C@H](C)CN(c2cc(-n3nc(Nc4ccc(NC(=O)OCC(C)(C)C)cc4)nc3N)ncn2)C[C@@H]1C [Compound 80] |
| 50 to 500 nM | < 50 nM | CC(=O)N1[C@H](C)CN(c2cc(-n3nc(Nc4ccc(NC(=O)O[C@H]5C[C@H](C)CC[C@H]5C(C)C)cc4)nc3N)ncn2)C[C@@H]1C [Compound 82] |
| < 50 nM | < 50 nM | CC(=O)N1[C@H](C)CN(c2cc(-n3nc(Nc4ccc(NC(=O)OC(C)(C)C)cc4)nc3N)ncn2)C[C@@H]1C [Compound 84] |
| < 50 nM | < 50 nM | CCCNC(=O)Nc1ccc(Nc2nc(N)n(-c3cc(N4CCCN(C(C)=O)CC4)ncn3)n2)cc1 [Compound 85] |

| Structure (SMILES) | Ki (JAK3) | Ki (JAK-2 enzyme) |
| --- | --- | --- |
| CC(=O)N1[C@H](C)CN(c2cc(-n3nc(Nc4ccc(NC(=O)Oc5ccc(C)cc5)cc4)nc3N)ncn2)C[C@@H]1C [Compound 81] | < 50 nM | < 50 nM |
